Data taken from patent US20250120957A1, “TREATMENT OF NEUROPSYCHIATRIC DISORDERS WITH TILIVAPRAM” (Alto Neuroscience, Inc., priority 2023, published 2025).

What was measured:
Assay type in all cases: in vivo, human
[1] = tested on: healthy patients aged 40 to 65 years old; assay: Phase 1 three-way crossover study: resting 19 channel EEG and cognitive task ERPs; settings: vs placebo
Experimental: (§1) A phase 1 three-way, crossover study was performed as shown in FIG. 1 on healthy patients aged 40 to 65 years old to determine dose and pharmacodynamic outcomes. Patients in the fasted state were orally administered 0.5 or 1.5 mg tilivapram or placebo in the form of an immediate release suspension. Outcomes were measured with a computerized neurocognitive test battery, resting 19 channel EEG, and cognitive task ERPs (event-related potentials). 44 patients were dosed (and used for AE analyses), of which 40 received all three doses (and used for analysis of cognitive, EEG and ERP outcomes).
Theta (4-8 Hz) is an EEG rhythm involving connections between the hippocampus and prefrontal cortex. Frontal midline resting theta power is elevated across a range of cognitive disorders, such as schizophrenia, ADHD, Parkinson's disease, Alzheimer's disease and mild cognitive impairment (MCI) (see Newson et al., Front Hum Neurosci., 2019, 12:521 (PMID 30687041)). Increased theta power correlates with poorer cognitive task performance. […] Tilivapram has a wide therapeutic window as there were significant decreases in theta power at both the 0.5 mg and 1.5 mg doses.
Stimulus-induced theta response, such as measured by inter-trial coherence, phase locking factor or event-related spectral perturbation, reflect the brain response during stimulus processing, is reduced in patients with schizophrenia, and the degree of reduction is correlated with the degree of cognitive impairment in these patients (Lee at al., Mol Psychiatry, 2017, 22 (11): 1585-1593, PMID 28167837; Martínez et al., Front Hum Neurosci., 2015, 9:371, PMID 26190988; Xiong et al.,Front Hum Neurosci., 2019, 13:37, PMID 30894804; Hua et al., Biol Psychiatry Cogn Neurosci Neuroimaging., 2023, 8 (12): 1186-1196, PMID: 36931469; Hochberger et al., Int. J. Psychophysiology, 2019, 145:23-29, PMID: 30586570; Wolff et al., Cerebral Cortex, 2022, 32:3441-3456: PMID: 34875019).
Evoked sensory gamma-based responses represent both basic sensory processing as well as higher cognitive functions, such as attention and memory. The onset of a stimulus triggers precisely timed local processing, evident as an increase in gamma-band intertrial phase locking. Gamma-band phase locking at ˜50 ms after stimulus onset is reduced in schizophrenia and other psychotic spectrum disorders such as bipolar disorder (see Roach et al., Schizophr Bull., 34 (5): 907-26, 2008 (PMID 18684772); Javitt et al., Neuropsychopharmacology, 45 (9): 1411-1422, 2020 (PMID 32375159)). […]

[2] = tested on: healthy patients aged 40 to 65 years old; assay: Phase 1 three-way crossover study: computerized neurocognitive test battery; settings: for global cognition, effect size d relative to placebo / memory, effect size d relative to placebo: 0.5 mg oral
Experimental: as §1
Tilivapram has a wide therapeutic window in the finger tapping task as there were significant decreases in latency at both the 0.5 mg and 1.5 mg doses.
The effect of tilivapram versus placebo on cognition was examined between subgroups of the study sample differing in their global cognitive composite score at baseline. […] However, examining only participants with baseline global cognition below healthy norms (z<−0.5), the effect of 0.5 mg tilivapram relative to placebo increased to d=0.861, p=0.034. […] Examining participants with global cognition of z<−0.5, the effect on memory becomes larger and statistically significant (d=0.797, p=0.048).

[3] = tested on: healthy patients aged 40 to 65 years old; assay: Phase 1 three-way crossover study: adverse events
Experimental: as §1
The adverse events were primarily nausea, as expected given the well-known dose-limiting effects of PDE4 inhibitors on nausea. Approximately 28% of people experienced nausea at the 1.5 mg dose, while only 2% did so at the 0.5 mg dose. […] Only one patient discontinued treatment due to an adverse event at the higher dose (1.5 mg) of tilivapram.

participants = assay: Phase I open-label 2-way cross-over study of oral solution vs transdermal delivery system: related adverse events
Experimental: A phase I, open-label, fixed period, 2-way cross-over study was performed to establish the pharmacokinetics and safety of a transdermal delivery system containing tilivapram. In Period 1 Day 1 (P1D1), participants were dosed with 1.0 mg of tilivapram in a liquid oral solution in a fasted state. After a 7-day washout period, participants were dosed with the first set of 4 patches applied by study staff on Period 2 Day 1 (P2D1), which were then removed after 24 hours and 4 new patches applied for an additional 24 hours on Period 2 Day 2 (P2D2) for a total of 48 hours. All but one of the 15 subjects completed the study. One subject withdrew after receiving the oral solution.

[4] = 0.5 and 1.5 mg oral, vs placebo
[5] = oral N=15, transdermal N=14, overall N=15

## COc1cnc(C(=O)Nc2c(Cl)c[n+]([O-])cc2Cl)cc1OCC1CC1 [tilivapram, 4-(cyclopropylmethoxy)-N-(3,5-dichloro-1-oxidopyridin-4-yl)-5-methoxypyridine-2-carboxamide]
[1]; 0.5 mg and 1.5 mg oral, auditory stimulus
  theta intertrial coherence at the Cz electrode: increased theta intertrial coherence
[1]; 0.5 and 1.5 mg oral immediate release suspension, fasted
  theta relative power at the Fz electrode (resting EEG): decreased theta relative power
[1]; 0.5 and 1.5 mg oral, Pz electrode
  gamma-band phase locking approximately 50 ms after onset of a tone auditory stimulus: increased gamma-band phase locking
[1]; 0.5 and 1.5 mg oral, oddball task
  mismatch negativity (MMN) at the Fz electrode: increased MMN
[2]; full sample, p=0.223
  global cognition, effect size d relative to placebo: 0.274
[2]; full sample, p=0.359
  memory, effect size d relative to placebo: 0.207
[2]; participants with baseline global cognition z<−0.5, p=0.034
  global cognition, effect size d relative to placebo: 0.861
[2]; participants with global cognition z<−0.5, p=0.048
  memory, effect size d relative to placebo: 0.797
[2]; [4]
  processing speed (composite z-score of simple reaction time, choice reaction time and Eriksen flanker tasks): improved processing speed
  psychomotor speed (latency in a finger tapping task): improved psychomotor speed
[3]; 0.5 mg oral dose
  people experiencing nausea: 2%
[3]; 0.5 mg to 1.5 mg oral
  dizziness and lightheadedness: substantially increased in a dose-related manner
[3]; 1.5 mg oral dose
  patients who discontinued treatment due to an adverse event: one
  people experiencing nausea: Approximately 28%
[3]; from the 0.5 mg dose to the 1.5 mg dose, oral
  adverse events: increased substantially
participants; oral 1.0 mg fasted N=15, 4 patches x 2 days N=14, overall N=15
  Number of participants with at least 1 TEAE: 11 (73.3) n (%)
participants; [5]
  Abdominal pain: 0 n (%)
  Administration site erythema: 0 n (%)
  Administration site pain: 0 n (%)
  Administration site pruritus: 2 (13.3) n (%)
  Arthralgia: 0 n (%)
  Asthenia: 1 (6.7) n (%)
  Dermatitis acneiform: 0 n (%)
  Diarrhea: 1 (6.7) n (%)
  Dizziness: 6 (40.0) n (%)
  Dyspepsia: 1 (6.7) n (%)
  Ear and labyrinth disorders: 1 (6.7) n (%)
  Fatigue: 0 n (%)
  Gastrointestinal disorders: 3 (20.0) n (%)
  General disorders and administration site conditions: 2 (13.3) n (%)
  Headache: 6 (40.0) n (%)
  Insomnia: 0 n (%)
  Irritability: 0 n (%)
  Musculoskeletal and connective tissue disorders: 0 n (%)
  Nausea: 3 (20.0) n (%)
  Nervous system disorders: 8 (53.3) n (%)
  Neuralgia: 0 n (%)
  Number of TEAEs: 28
  Psychiatric disorders: 0 n (%)
  Skin and subcutaneous tissue disorders: 0 n (%)
  Vertigo: 1 (6.7) n (%)
